Test [1] concerns the target T1, APOL1 G2 (Homo sapiens, UniProt O14791, DEL388-389).
T1 construct: expressed in transfected cells; host or cells: HEK293 T-REx clonal lines: HEK T-REx/GCaMP6f/APOL1 G2 K6.3 in A1, HEK293/T-REx APOL1 G2/clone #2 in A2
T1 sequence (O14791 with tags, fused parts or gaps DEL388-389): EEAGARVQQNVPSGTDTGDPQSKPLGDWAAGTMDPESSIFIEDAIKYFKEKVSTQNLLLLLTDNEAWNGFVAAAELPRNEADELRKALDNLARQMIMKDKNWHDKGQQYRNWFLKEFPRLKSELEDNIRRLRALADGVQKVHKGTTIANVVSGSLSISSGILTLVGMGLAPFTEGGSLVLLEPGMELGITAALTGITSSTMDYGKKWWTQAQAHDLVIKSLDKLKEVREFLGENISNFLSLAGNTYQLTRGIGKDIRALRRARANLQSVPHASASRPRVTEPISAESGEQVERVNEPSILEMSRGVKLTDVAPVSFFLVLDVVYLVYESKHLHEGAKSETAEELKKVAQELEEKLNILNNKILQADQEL
Briefly: APOL1 calcium transport inhibition assay (GCaMP6f calcium influx, FLIPR) in HEK T-REx/GCaMP6f/APOL1 G2 K6.3 cells. The class given is cell-based. The settings on record: inhibition of APOL1-mediated calcium influx; geometric mean of at least 2 assay runs, † = single assay run (technical duplicate). The essentials:
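HEK293 cells stably expressing GCaMP6f, APOL1 G2 induced 6 h with doxycycline (20 ng/mL added), then washed into Ca2+-free Tyrode's buffer pH 7.4. Compounds (8-point dose response) preincubated 10 min at room temperature, then Ca2+ injected to 5 mM final and influx read on FLIPR. AC50 reported as geometric mean of runs.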

In test [2] the target is T1, APOL1 G2. Briefly: Rescue of HEK293 cell death caused by overexpression of APOL1 (CellTiter-Glo luminescence), HEK293/T-REx APOL1 G2/clone #2. The settings on record: reversal of cell death caused by overexpression of APOL1; geometric mean of at least 2 assay runs, † = single assay run (technical duplicate). The class given is cell-based. The essentials:
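Rescue EC50s come from four-parameter logistic fits, geometric mean of at least 2 runs on separate days, each in duplicate. Readout: CellTiter-Glo luminescence after 17 h at 37 °C of 5,000 HEK293/T-REx APOL1 G2 clone #2 cells/well, with 6 ng/mL doxycycline to induce APOL1 and 3-fold serial compound dilutions in 0.5% DMSO.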
For orientation: ATP-based viability assays read luminescence as a measure of living cells.

`CS(=O)(=O)c1ccc(OC[C@@H]2CCCN(CC(O)c3cccc(Cl)c3)C2)cc1` (single isomer, unassigned) [Compound 22, (S) or (R)-1-(3-chlorophenyl)-2-((R)-3-((4-(methylsulfonyl)phenoxy)methyl)piperidin-1-yl)ethanol]: the AC50 (as a rule, the concentration at which the activity in the assay is half-maximal) in test [1] was 6410 nM. Further, the EC50 (as a rule, the concentration at which the effect is half-maximal) in test [2] came to 6590 nM.
As to `C[C@@H]1C[C@H](COc2ccc(S(C)(=O)=O)cc2)CN1CCc1cccc(Cl)c1` [Compound 153, (2R,4S)-1-[2-(3-chlorophenyl)-ethyl]-4-[(4-methanesulfon-ylphenoxy)meth-yl]-2-methyl-pyrrolidine], in test [1], the AC50 came out at 374 nM. The EC50 in test [2] worked out at 27.8 nM.
The like results for `CS(=O)(=O)c1ccc(OCC2CCCCN(CCc3cccc(Cl)c3)C2)cc1` (stereo not shown) [Compound 1, 1-(3-chlorophenethyl)-3-((4-(methylsulfonyl)phenoxy)methyl)azepane] were, in that order, no more than 253 nM and 528 nM.
The matching figures for `CC1CC(COc2ccc(S(C)(=O)=O)cc2)CN1CCc1cccc(C#N)c1` (single isomer, unassigned) [Compound 137, 3-{2-[(2S,4R or 2R,4S or 2R,4R or 2S,4S)-4-[(4-methanesulfon-ylphenoxy)meth-yl]-2-methyl-pyrrolidin-1-yl]-ethyl}benzo-nitrile]: greater than 10000 nM and 4620 nM.
The matching figures for `CN(c1ccc(OC[C@@H](O)CNCCc2ccccc2OC(F)F)cc1)S(C)(=O)=O` [Compound 101, (S)-N-(4-(3-((2-(difluoromethoxy)phenethyl)amino)-2-hydroxypropoxy)phe-nyl)-N-methylmethanesulfon-amide]: 1300 nM and 10100 nM.
Regarding `CC1CC(COc2ccc(S(C)(=O)=O)cc2)CN1CCc1cccc(C#N)c1` (single isomer, unassigned) [Compound 139, 3-{2-[(2S,4R or 2R,4S or 2S,4S or 2R,4R)-4-[(4-methanesulfon-ylphenoxy)meth-yl]-2-methyl-pyrrolidin-1-yl]-ethyl}benzo-nitrile], the AC50 in test [1] is greater than 10000 nM. For the same molecule, the EC50 in test [2] was 3230 nM.
Take `CC(Cc1cccc(Cl)c1)NC[C@H](O)COc1ccc(N(C)S(C)(=O)=O)cc1` (single isomer, unassigned) [Compound 96, N-(4-((S)-3-(((R) or (S)-1-(3-chlorophenyl)propan-2-yl)amino)-2-hydroxypropoxy)phe-nyl)-N-methylmethanesulfon-amide]: the AC50 in test [1] was 3770 nM. Also, the concentration for a half-maximal effect (EC50) in test [2] was greater than 30000 nM.
On to `CS(=O)(=O)c1ccc(CCC2CCCN(CCc3cccc(Cl)c3)C2)cc1` (single isomer, unassigned) [Compound 40, (S) or (R)-1-(3-chlorophenethyl)-3-(4-(methylsulfonyl)phenethyl)piperidine], for which, in test [1], the AC50 is less than 118 nM. Also, the EC50 in test [2] was 746 nM.
For `CC1CC(COc2ccc(S(C)(=O)=O)cc2)CN1CCc1cc(Cl)cc(C#N)c1` (single isomer, unassigned) [Compound 200, 3-chloro-5-(2-((2S,4R or 2R,4S or 2R,4R or 2S,4S)-2-methyl-4-((4-(methylsulfonyl)phenoxy)methyl)pyrrolidin-1-yl)ethyl)benzonitrile], in test [1], the AC50 was 836 nM. Also, in test [2], the EC50 is 1990 nM.
For the molecule `CS(=O)(=O)c1ccc(OC[C@@H]2CCCN(CCc3cccc(Cl)c3)C2)cc1` [Compound 15, (R)-1-(3-chlorophenethyl)-3-((4-(methylsulfonyl)phenoxy)methyl)piperidine], the AC50 in test [1] stood at 287 nM. Moreover, the EC50 in test [2] is 567 nM.
The matching figures for `CN(c1ccc(OC[C@H](O)CN2CCOC(c3cccc(Cl)c3)C2)cc1)S(C)(=O)=O` (single isomer, unassigned) [Compound 84, N-(4-((R)-3-((R) or (S)-2-(3-chlorophenyl)morpho-lino)-2-hydroxypropoxy)phe-nyl)-N-methylmethanesulfon-amide]: greater than 25000 nM and greater than 30000 nM.
The matching figures for `CS(=O)(=O)c1ccc(OC[C@H](O)CNCCc2cccc(Cl)c2)cc1` [Compound 94, (R)-1-((3-chlorophenethyl)a-mino)-3-(4-(methylsulfonyl)phe-noxy)propan-2-ol]: 1620 nM and 8370 nM.
`CS(=O)(=O)c1ccc(OCC2CN(CCc3cccc(Cl)c3)CCC2O)cc1` (racemic) [Compound 27, rac-trans or cis-1-(3-chlorophenethyl)-3-((4-(methylsulfonyl)phenoxy)methyl)piperidin-4-ol]: the concentration at half-maximal activity (AC50) in test [1] is 1500 nM. The EC50 in test [2] worked out at 2130 nM.
The like results for `CS(=O)(=O)c1ccc(OC[C@H]2CCCN(CC(O)c3cccc(Cl)c3)C2)cc1` (stereo partly drawn) [Compound 17, 1-(3-chlorophenyl)-2-((S)-3-((4-(methylsulfonyl)phenoxy)methyl)piperidin-1-yl)ethan-1-ol] were, in that order, 1370 nM and 671 nM.
The like results for `C[C@@H]1CN(CC(O)c2cc(C#N)cc(C#N)c2)C[C@H]1COc1ccc(S(C)(=O)=O)cc1` (stereo partly drawn) [Compound 129, 5-{1-hydroxy-2-[(3S,4S)-3-[(4-methanesulfonylphenoxy)methyl]-4-methylpyrrolidin-1-yl]ethyl}benzene-1,3-dicarbonitrile] were, in that order, 1040 nM and 723 nM.
The matching figures for `C[C@H]1CN(CCc2cccc(Cl)c2)C[C@@H]1COc1ccc(S(=O)(=O)CCCS(C)(=O)=O)cc1` (single isomer, unassigned) [Compound 176, (3R,4R or 3S,4S)-1-[2-(3-chlorophenyl)eth-yl]-3-{[4-(3-methanesulfonylpro-panesulfonyl)phe-noxy]methyl}-4-methylpyrrolidine]: 63 nM and less than 47.2 nM.
As to `CC1CC(COc2ccc(S(C)(=O)=O)cc2)CN1CCc1cccc(C#N)c1` (single isomer, unassigned) [Compound 140, 3-{2-[(2S,4R or 2R,4S or 2R,4R or 2S,4S)-4-[(4-methanesulfon-ylphenoxy)meth-yl]-2-methyl-pyrrolidin-1-yl]-ethyl}benzo-nitrile], the AC50 in test [1] worked out at 107 nM. In addition, the EC50 in test [2] came to 45.9 nM.
For the molecule `C[C@H]1CN(CCc2cccc(Cl)c2)C[C@@H]1COc1ccc(S(=O)(=O)CCO)cc1` (single isomer, unassigned) [Compound 112, 2-(4-{[(3R,4R or 3S,4S)-1-[2-(3-chlorophenyl)ethyl]-4-methylpyrrolidin-3-yl]methoxy}benzene-sulfonyl)ethan-1-ol], the AC50 in test [1] is greater than 159 nM. Also, the EC50 in test [2] came to 29.8 nM.
For the molecule `C[C@@H]1CN(CCc2cc(Cl)cc(C#N)c2)C[C@H]1COc1ccc(S(=O)(=O)CCCS(C)(=O)=O)cc1` [Compound 167, 3-chloro-5-{2-[(3S,4S)-3-{[4-(3-methanesulfonylpro-panesulfonyl)phe-noxy]methyl}-4-methylpyrrolidin-1-yl]ethyl}benzonitrile], the AC50 in test [1] was 314 nM. Moreover, the EC50 in test [2] came to 67.2 nM.
The like results for `C[C@@]1(O)CN(CCc2cccc(Cl)c2)C[C@H]1COc1ccc(S(C)(=O)=O)cc1` (single isomer, unassigned) [Compound 207, (3S,4S or 3R,4R)-1-[2-(3-chlorophenyl)ethyl]-4-[(4-methanesulfonylphenoxy)methyl]-3-methylpyrrolidin-3-ol] were, in that order, 340 nM and 933 nM.

The values are drawn from patent US20240316038A1, “APOL1 INHIBITORS AND METHODS OF USE” (Maze Therapeutics, Inc., priority 2021, published 2024).
